The values that follow come from ChEMBL document CHEMBL6078621, “Macrocyclic-based strategy in drug design: From lab to the clinic” (Eur J Med Chem, 2024).

Starred links: 1 amine or outer side, 2 acyl side, 3 side chain; linkers in the order of their positions; H or OH if unused. Positions of bridges follow the written chain, without caps; N, C: chain ends. Non-standard residues stand in square brackets, D forms with d. Residues, ends and D or L forms follow the SMILES beside them. *: point of attachment. Phe(4-Cl) = N[C@@H](Cc1ccc(Cl)cc1)C(=O)O; 2Thi = N[C@@H](Cc1cccs1)C(=O)O; Agmatine = N=C(N)NCCCCN*; X1 = O=C(CCC[*:2])[*:1]; Mpa = O=C(O)CCS; NEt2 = CCN(CC)* A value given as a limit tells only on which side of the number the result lay.

The nature of data set [1]: Oral bioavailability in human. The format is ADME, organism-based. Conditions: in vivo.
Data set [2] in a line: Plasma protein binding in human. The format is ADME, cell-free. Conditions: read-out: PPB.
The nature of data set [3]: AUC in Wistar rat. It counts as ADME. The settings on record: in vivo.
Data set [4] can be described thus: AUC in Sprague-Dawley rat at 2 mg/kg, iv by LC-MS/MS analysis. Conditions: in vivo. It counts as ADME, organism-based.
A short description of data set [5]: Microsomal stability in human liver microsomes assessed as intrinsic clearance. It counts as ADME, Microsome. On the technique in general: Microsomes from liver hold many membrane-bound enzymes, among them those of drug oxidation.
Data set [6] can be described thus: AUC in Sprague-Dawley rat at 10 mg/kg, po by LC-MS/MS analysis. The format is ADME, organism-based. The settings on record: in vivo.
A short description of data set [7]: Clearance in Sprague-Dawley rat at 0.5 mg/kg, iv by LC-MS/MS analysis. The format is ADME, organism-based. Conditions: in vivo.
A short description of data set [8]: Oral bioavailability in Sprague-Dawley rat at 5 mg/kg by LC-MS/MS analysis. It counts as ADME, organism-based. The settings on record: in vivo.
A short description of data set [9]: Intrinsic clearance in human liver microsomes. The format is ADME, Microsome.
The test system of data set [10] is Huh-7. Description: Cytotoxicity against human Huh-7 cells assessed as inhibition of cell viability incubated for 24 hrs by MTT assay. It counts as functional. A general note: Tetrazolium assays rely on reduction of a dye to a coloured formazan, in cell work by metabolically active cells.
Data set [11] is described as follows: Plasma clearance in Sprague-Dawley rat at 1 mg/kg, iv measured upto 24 hrs by LC-MS/MS analysis. It counts as ADME, organism-based.
Data set [12] is described as follows: Cmax in human at 8 mg/kg, po. It counts as ADME, organism-based. The settings on record: in vivo.
The nature of data set [13]: Solubility of the compound. It counts as physicochemical.
Data set [14] in a line: in vitro. Conditions: human, liver microsomes.
Data set [15] can be described thus: Half life in mouse. It counts as ADME, organism-based. The settings on record: in vivo.
Data set [16] is described as follows: Half life in rat. Conditions: in vivo. The format is ADME.
The nature of data set [17]: Half life in dog. It counts as ADME, Canis lupus familiaris. The settings on record: in vivo.

In general, bioavailability refers to dose-corrected exposure relative to a reference, in per cent. Low readings indicate little systemic uptake, high ones much systemic uptake. `C[C@@H]1CCC[C@H](n2cnc(-c3cc(Cl)ccc3-n3cc(Cl)nn3)cc2=O)c2cc(ccn2)-c2c(cnn2C(F)F)NC1=O` [MILVEXIAN] showed a bioavailability in [1] of 18%.

For `CN1C/C=C/CCOc2cccc(c2)-c2ccnc(n2)Nc2cccc(c2)C1` [ZOTIRACICLIB], in data set [2], the fraction unbound is 0.001.

One may read the AUC as the area under the concentration-time curve, a measure of exposure. A high value points to high exposure. As to `C[C@H]1Oc2cc(cnc2N)-c2c(nn(C)c2C#N)CN(C)C(=O)c2ccc(F)cc21` [LORLATINIB], in data set [3], the AUC turned out to be 3.48 µM·h.

`COc1ccc2c(O[C@@H]3C[C@H]4C(=O)N[C@]5(C(=O)NS(=O)(=O)C6CC6)C[C@H]5/C=C\CCCCN(C)C(=O)[C@@H]4C3)cc(-c3nc(C(C)C)cs3)nc2c1C`: the AUC was 5.21 µM·h in data set [4] and 2.79 µM·h in data set [6]. Besides, the CLH in [5] was determined as 6 µL/min/mg.

As usually defined, the clearance is a measure of how efficiently the substance is removed, as volume per time. As to `CCN(CC)C(=O)[C@@H](CCCNC(=N)N)NC(=O)[C@@H]1CCCN1C(=O)[C@@H]1CSCCCC(=O)N[C@@H](Cc2ccc(Cl)cc2)C(=O)N[C@@H](Cc2cccs2)C(=O)N[C@@H](C(C)C)C(=O)N[C@@H](CC(N)=O)C(=O)N1` ([Phe(4-Cl)][2Thi]VNCP[dR]-NEt2; linker N-5 via X1), the clearance in [7] turned out to be 42 mL/min/kg.

The molecule `CC(C)[C@@H]1NC(=O)[C@H](Cc2ccccc2)NC(=O)[C@H](Cc2ccc(O)cc2)NC(=O)CCSSC[C@@H](C(=O)N2CCC[C@H]2C(=O)N[C@H](CCCNC(=N)N)C(=O)NCC(N)=O)NC(=O)[C@H](CC(N)=O)NC1=O` ([Mpa]YFVNCP[dR]G-NH2; disulfide 1-6) came in with a clearance in data set [7] of 9.6 mL/min/kg. The molecule also came in with a bioavailability in [8] of 31%.

As usually defined, the CC50 is the concentration at which the toxic effect on the cells reaches its halfway point. `COc1ccc2c(O[C@@H]3C[C@H]4C(=O)N[C@]5(C(=O)NS(=O)(=O)C6CC6)C[C@H]5/C=C\CCCCN(C)C(=O)[C@@H]4C3)cc(-c3ccccc3)nc2c1` yielded a CLH in data set [9] of 46 µL/min/mg. Further, in [10], the CC50 was above 20 µM. Moreover, in [11], the clearance is 46.5 mL/min/kg.

As to `CC(C)[C@@H]1NC(=O)[C@H](Cc2cccs2)NC(=O)[C@H](Cc2ccc(Cl)cc2)NC(=O)CCCSC[C@@H](C(=O)N2CCC[C@H]2C(=O)NCCCCNC(=N)N)NC(=O)[C@H](CC(N)=O)NC1=O` ([Phe(4-Cl)][2Thi]VNCP-Agmatine; linker N-5 via X1), the clearance in data set [7] amounted to 14 mL/min/kg.

In general, Cmax refers to the highest concentration seen after dosing. As to `C[C@@H]1CN[C@@H](C2CC2)C(=O)N(C)[C@H](C)C(=O)N[C@H](Cc2ccc(F)cc2)C(=O)NCCCc2ccccc2O1` [ULIMORELIN], the highest level in data set [12] (Cmax) was 1400 nM.

The molecule `NC(=O)CC[C@@H]1NC(=O)[C@H](Cc2ccccc2)NC(=O)[C@H](Cc2ccc(O)cc2)NC(=O)CCSSC[C@@H](C(=O)N2CCC[C@H]2C(=O)N[C@H](CCCN=C(N)N)C(=O)NCC(N)=O)NC(=O)[C@H](CC(N)=O)NC1=O` [DESMOPRESSIN] showed a bioavailability in data set [8] of 41%.

For orientation: solubility means how much of the substance goes into solution per volume. By half-life is commonly meant the time in which the quantity being followed falls by half. Low readings indicate rapid decline, high ones slow decline. Molecule `C1=C/COCc2cc(ccc2OCCN2CCCC2)Nc2nccc(n2)-c2cccc(c2)COC/1` [PACRITINIB] displayed a solubility in data set [13] above 150 µg/mL. The half-life in [14] is above 60 min.

Regarding `C/C1=C/C=C/[C@H](C)[C@H](O)[C@@H](C)[C@@H](O)[C@@H](C)[C@H](OC(=O)O)[C@H](C)[C@@H](OO)/C=C/O[C@@]2(C)Oc3c(C)c(O)c4c(O)c(c(/C=N/N5CCC(N(C)C6([C@@H]7CCN(c8cc9c(C%10CC%10)cc(C(=O)O)c(=O)n9cc8F)C7)CC6)CC5)c(O)c4c3C2=O)CC1=O`, the half-life in data set [15] was 24 min; in data set [16], 24 min; in [17], 96 min.
